The assay concerns aortic smooth muscle strips. In words: Dose-response relationship to 8-Br-cGMP, relaxation of aortic smooth muscle strips from treated rats. The class given is in vivo, rat. The following applies: post-infarct animals treated with captopril, at both 2 and 4 weeks; P>0.05. From the text:
After intubation, rats were ventilated continuously (room air) using a small animal ventilator (Model 683, Harvard Apparatus, Holliston, Mass.). A left lateral thoracotomy incision was made along the 5th intercostal space and after the pericardium was opened, the heart was exteriorized using a retention suture placed at the apex. The left anterior descending coronary artery (LAD) was ligated twice using 6-0 prolene suture (Ethicon, Cornelia, Ga.). After chest closure with running 3-0 vicryl suture (Ethicon), rats were put in a recovery chamber with a heating pad and warming light. The post-operative survival rate reached 80%. […] Rats were fed a standard diet of Teklad rodent feed (Harlan) ad libitum and kept on a 12:12 h light-dark cycle. Rats were sacrificed at designated time intervals of 2 weeks and 4 weeks after surgery. […] Determination of the dose-response relationship to cGMP: Aortic smooth muscle strips were isolated from rats in the uninfarcted control group without treatment and from both placebo as well as captopril treated group at 2 weeks and 4 weeks post-LAD ligation to determine the dose-response relationship to cGMP. […] After the force reached a steady state, the dose-response relationship to 8-Br-cGMP (Calbiochem, San Diego, Calif.) was determined.

Each structure is given as a SMILES string.

`C[C@H](CS)C(=O)N1CCC[C@H]1C(=O)O` [Captopril, 1-[(2S)-3-mercapto-2-methylpropionyl]-L-proline]: the “sensitivity of cGMP-mediated relaxation versus uninfarcted control aorta” value was “not different”.

The values are drawn from patent US8293481B2, “Biomarkers for chronic vascular dysfunction” (Mayo Foundation for Medical Education and Research, priority 2006, dated 2012).
